Where “and” joins values, the source holds several entries; their conditions need not be identical. Identical values can stand only once. Like-named read-outs stand apart in the source and are kept apart here.
Key:
[1] = test system: blood-brain barrier (BBB); test: Penetration of PEGylated fluorescent nanoparticles through the BBB (IVIS, immunohistochemistry); assay type: in vivo, FVB mice; conditions: 0.3 μg/Kg VEGF iv 45 min before PEGylated nanoparticles
Source text: COOH-modified nanoparticles (20 to 500 nm) were covalently modified with methoxy (MeO)-PEG-amine (NH2) according to previously published protocols (Nance et al., Sci Transl Med 4(149): 149ra119; 2012). PEGylated fluorescent nanoparticles of 20 nm, 100 nm and 500 nm were used to investigate the biodistribution and extravasation after intravenous injection and perfusion into FVB mice. These nanoparticles were quantified by IVIS and immunohistochemistry.
All IVIS images were taken using a Xenogen IVIS Spectrum device (PerkinElmer, Waltham, Mass.).
The mice were subjected to perfusion following routine procedures 30 minutes after injection of the nanoparticles and the brain tissues were analyzed by IVIS imaging and immunohistochemistry. FIG. 2, panel A. The amount of nanoparticles accumulated in the brain tissue (i.e., across the BBB) was determined by measuring the intensity of the fluorescent signals. Results are illustrated in FIG. 2, panels B-D.

[2] = test system: MCAO ischaemic stroke model; test: Middle Cerebral Artery Occlusion (MCAO) model, hMSC cell therapy with VEGF pre-treatment; assay type: in vivo, rats
Source text: The procedure published by Boyko and colleagues (Boyko, et al., Journal of Neuroscience Methods 193(2): 246-253; 2010) was used to create a middle cerebral artery occlusion (MCAO) model in rats. In brief, the left side carotid bifurcation was exposed with a self-retractor. After carefully separating the […] (ICA) from peripheral soft tissue, a small opening was created at the proximal ICA. Silicon-coated 4-0 monofilament nylon was inserted from the opening and penetrated forward to the beginning of middle cerebral artery (MCA). An O2C oximeter was used to transcranially monitor the ipsilateral MCA blood flow. Once blood flow decreased successfully, the nylon suture was fixed in situ, mimicking ischaemic stroke. After 90 minutes of ischaemic injury, the suture was removed, allowing reperfusion. A stable and reproducible cerebral infarction could be created with this procedure. […] MCAO model rats were divided into four groups: […] Discosoma sp. Red (Ds-Red)-expressing human mesenchymal stem cells (hMSCs) were used for MCAO cell therapy. […] To evaluate the infarction size, rats were sacrificed three days after ischaemic-reperfusion injury and treatment. […] Brain slices were then scanned and the infarction size was calculated by measuring the pale area with ImageJ software. […]

[3] = test system: U87 MG human glioblastoma xenograft; test: Effect of intravenous VEGF on tumor luminescence in U87 MG intracranial xenograft (IVIS); assay type: in vivo, BALB/c NU mice; conditions: paired t-test per mouse
[4] = test system: blood-brain barrier (BBB)
[5] = test system: U-87MG glioblastoma xenograft; conditions: for Median Survival: VEGF 0.3 μg/kg where given
Method: The human luciferase-expressing glioblastoma cell line U-87MG was used for all GBM experiments. Cells were routinely cultured in EMEM with 10% FBS, at 37° C. with 5% CO2.
BALB/c nude mice were orthotropically xenografted with U87 glioma cells (2×10^5) by stereotactic (2 mm right and 1 mm posterior to the bregma, 3.5 mm deep from the dura) injection into the brain. Mouse tumor progression was measured by IVIS at different time points (0, 1, 3, 7 . . . every 7 days until 60 days).
The DNA methylating drug temozolomide (TMZ) was used as therapy for GBM model mice. […] Tumor growth was monitored by in vivo bioluminescent imaging. Mice were observed over 60 days and their survival rates recorded on a Kaplan-Meier survival curve.

[6] = test system: blood-brain barrier (BBB); remark: listed apart in the source

“vascular endothelial growth factor [VEGF]” was tested, and the “Nanoparticles crossing the BBB (fluorescence intensity in brain)” value [1] was “facilitated the nanoparticles to cross BBB”, the Brain infarction ([2]; MCAO, VEGF pre-treatment 0.3 μg/kg) was “reduced the brain infarction” and the “hMSCs delivered to the brain (Ds-Red fluorescent intensity)” value ([2]; hMSCs 35 min after 0.3 μg/kg VEGF, vs control) was “more hMSCs were delivered to the brain”. For the same molecule, the “Change of tumor size from D21 to D27” value [3] was “tumors were larger”, the “Persistence of increased BBB permeability” value ([4]; 0.3 μg/kg VEGF) was “at least 60 min” and the “Time of maximum BBB permeability after VEGF” value ([4]; 0.3 μg/kg VEGF) was “about 45 min”. The “Time after VEGF injection at which significant BBB permeability increase was observed” value ([4]; 0.3 μg/kg VEGF, EB injected after VEGF) was 15 min, the “Time to return to normal BBB permeability” value ([4]; after VEGF administration) was 2 h and the “Duration of increased BBB permeability” value ([4]; low dose VEGF) was “about 1 hr”. The “BBB permeability of EB (Evans Blue content of brain tissue)” value ([4]; mice, VEGF 0.1-2.0 μg/kg, vs saline control) was “increased BBB permeability”, the “Time of peak BBB permeability after VEGF administration” value ([4]; summary statement) was 45 min and the “Increase of BBB permeability” value ([4]; temporary increase after VEGF administration) was “approximately three-fold”. For the same molecule, the “Median Survival with VEGF vs TMZ alone (% increase)” value ([5]; GBM mice, TMZ 5 mg/kg) was 10 % increase, the “Delay in tumor growth by TMZ with VEGF pre-treatment” value ([5]; VEGF 0.3 μg/kg before 5 mg/kg TMZ) was “further enhanced the delay in tumor growth” and the “Cortex, signal to noise ratio T1WI Post-iv” value ([6]; 5 minutes after 0.2 mmol/kg gadolinium contrast agent, given 45 min after VEGF) was 58.30. The “Increase % of signal to noise ratio (detectable level of gadolinium contrast agent in brain)” value ([6]; average, VEGF 0.3 ug/kg pre-treatment) was 15.5% and the “Signal to noise ratio (SNR) enhancement, individual mice” value ([6]; each of the 3 VEGF-treated mice) was 17% and 14% and 15.5%.

`Cn1nnc2c(C(N)=O)ncn2c1=O` [TMZ, temozolomide] was tested, and the “Delay of GBM growth” value ([5]; 5 mg/kg TMZ, vs GBM mice not treated by TMZ) was “at least 20 days”, the “Median Survival vs vehicle (% increase)” value ([5]; GBM mice, TMZ 5 mg/kg) was 31.58 % increase and the “Median Survival” value ([5]; GBM mice, TMZ 5 mg/kg) was 50 days. The “Median Survival vs vehicle (% increase)” value ([5]; GBM mice, TMZ 20 mg/kg) was 31.58 % increase and the “Median Survival” value ([5]; GBM mice, TMZ 20 mg/kg) was 50 days.

— patent US20210275640A1, “METHODS FOR ENHANCING PERMEABILITY TO BLOOD-BRAIN BARRIER, AND USES THEREOF” (ACADEMIA SINICA, priority 2014, published 2021)
